Several values for one entry are separate records, joined by “and”; a condition that tells them apart may be missing. Equal entries are not always repeated. Structures can show the parent of a compound that is named as a salt. Where two headings read alike, the source gives them in different places.
Assays:
Penta-Mutant/NR2A = Penta-Mutant/NR2A (Rattus norvegicus, UniProt P35439+Q00959, K193A/K202A/R187A/R233A/R252A); assay: NMDA-induced currents, Xenopus oocytes, Example 5
Method: Plasmids were linearized with appropriate restriction enzyme prior to in vitro transcription using the Message Machine kit (Ambion, Inc., Austin, Tex.).
Female, oocyte positive Xenopus laevis frogs were purchased from Xenopus I (Dexter, Mich). […] Oocytes were injected with 50 nL of RNA solutions using an electronic microinjector (Drummond Inc., Broomall, Pa.). […] The injected oocytes were used for experiments following 1-5 days of incubation in Barth's solution at 18-20° C.
The microelectrodes were fabricated with a programmed puller (Sutter Instrument Co., Calif.) from borosilicate glass capillaries and were filled with 3 M KCl solution. The resistance of filled microelectrodes was in the range of 1-3 MΩ. […] If not mentioned otherwise, during data acquisition oocytes were clamped at a holding potential of −70 mV. The membrane current was filtered at 500 Hz and sampled at 100 Hz. Drugs were applied using a gravity driven external perfusion system. The working ,volume of the recording chamber was 30 μl and the rate of the perfusion was 50 μl/sec. The drug application lasted 10 sec and was followed by a 60 sec wash. The data acquisition and external perfusion control were done using the SuperScopeII software package (GW Instruments, Mass.). All experiments were performed at room temperature (22-24° C.). Peak or steady-state current measurements were normalized and expressed as a fraction of the peak or steady-state control current measurements, which were performed before and after application of every single consentration of agonist or steroid. […] The data are presented as mean±S.E.M. with number of experiments in parentheses.

NR1/NR2C (NR1100) = NR1/NR2C (NR1100) (Rattus norvegicus, UniProt P35439+Q00961)
Text: Plasmids containing the NR1100 (NR1G) and NR2A cDNA inserts were kindly provided by Dr. Nakanishi (Kyoto University Faculty of Medicine, Kyoto, Japan). Plasmids containing the NR2B, NR2C and NR2D cDNA inserts were kindly provided by Dr. P. Seeburg (Heidelberg University, Heidelberg, Germany). Plasmids were linearized with appropriate restriction enzyme prior to in vitro transcription using the Message Machine kit (Ambion, Inc., Austin, Tex.).
Female, oocyte-positive Xenopus laevis frogs were purchased from Xenopus I (Dexter, Mich.). […] Oocytes were injected with 50 nL of RNA solutions using an electronic microinjector (Drummond Inc., Broomall, Pa.). […] The injected oocytes were used for experiments following 1-5 days of incubation in Barth's solution at 18-20° C.
The microelectrodes were fabricated from borosilicate glass capillaries with a programmed puller (Sutter Instrument Co., Calif.). Microelectrode resistance was 1-3 MΩ_when filled with 3 M KCl.
Except where otherwise stated, oocytes were clamped at a holding potential of −70 mV during data acquisition. The membrane current was filtered at 500 Hz and sampled at 100 Hz. Drugs were applied using a gravity-driven external perfusion system. The working volume of the recording chamber was 30 μl and the rate of the perfusion was 50 μl/sec. The drug application lasted 10 sec and was followed by 60 s wash. Data acquisition and external perfusion were controlled using custom-written software implemented in the SuperScope II development environment (GW Instruments, Mass.). All experiments were performed at room temperature of 22-24° C. Peak or steady-state current measurements were normalized and expressed as a fraction of the peak or steady-state control current measurements, which were performed before and after application of every single concentration of agonists or steroids.
Concentration-response data were analyzed by nonlinear regress ion using the logistic equation Response=Emax/(1+(EC50/c)^nH), where c is concentration, Emaxis the maximum response, nHis the Hill coefficient. The data are presented as mean±SEM. EC50values are averaged as logarithms (De Lean et al., Am. J. Physiol. 235: E97-E102 (1978))±the SEM of the log EC50. […] The pooled data were simultaneously fitted to the logistic equation, either with Emax and EC50 constrained to be identical in the presence and absence of PS, or allowing one or both to vary independently. […] This was regarded as indicating a significant treatment effect of PS, but the change in EC50and Emaxwas not considered significant. […] No attempt was made to test the generally small changes in nHfor statistical significance.

NR1010/NR2A = NR1010/NR2A (Rattus norvegicus, UniProt P35439+Q00959); design: agonist nHill / agonist Emax: dose or concentration left out as unconfirmed
NR1111/NR2A [1] = target: T1, NR1111/NR2A (Rattus norvegicus, UniProt P35439+Q00959); design: agonist Emax: dose or concentration left out as unconfirmed
NR1111/NR2A [2] = target: T1, NR1111/NR2A; assay: NMDA-induced currents of NR1 splice variants, Xenopus oocytes, Example 4; format: cell-based; design: expressed in transfected cells; host or cells: Xenopus oocytes injected with NR1111 and NR2A mRNA; conditions: for maximum relative current (MRC) / percentage potentiation of the maximum NMDA response / NMDA nH / EC50: NR1111/2A; for EC50: read-out: NMDA EC50
Method: (§1) Overnight cultures (500 ml) of transformed bacterial cells were prepared in order to grow sufficient quantities for maxiprep isolation of the plasmid CDNA. Maxipreps were done using a Sorvall RC-5B ultracentrifuge, Qiagen columns and cDNA was quantitated with spectrophotometry (OD260 and OD260/ OD280 ratio). The resulting plasmid cDNA was linearized by digestion with an appropriate restriction enzyme that cleaves distal to the cDNA insert (XhoI for NR2A or NotI for NR1100, NR1000, NR1111, NR1011, NR1101, NR1001). […] The samples were stored at −20° C. until use.
(§2) In vitro transcription was performed using the Ambion mMessage mMachine kit with T7 (NR1100, NR1000, NR1111, NR1011, NR1101, NR1001) RNA polymerase. The reaction was assembled on ice and allowed to incubate at 37° C. for 1-2 hr. The resulting mRNA was precipitated (reaction termination) using lithium chloride/5 mM EDTA solution and dissolved in RNase-free H2O. The concentration (OD260) and OD260/OD280 ratio (should be more than 1.5) was determined by spectrophotometer. The yield of mRNA was generally 15-30 μg. mRNA was stored at −80° C. until use.
(§3) Intracellular recording microelectrodes were fabricated from 100 μl borosilicate glass disposable micropipettes using a 2-step protocol on a standard horizontal Flaming-Brown micropipette puller.

NR1100/NR2A = NR1100/NR2A (Rattus norvegicus, UniProt P35439+Q00959); design: agonist nHill / agonist Emax: dose or concentration left out as unconfirmed
NR1000/NR2A = NR1000/NR2A (Rattus norvegicus, UniProt P35439+Q00959); design: agonist Emax: dose or concentration left out as unconfirmed
NR1011/NR2A [3] = target: T2, NR1011/NR2A (Rattus norvegicus, UniProt P35439+Q00959); assay: NMDA-induced currents of NR1 splice variants, Xenopus oocytes, Example 4; format: cell-based; design: expressed in transfected cells; host or cells: Xenopus oocytes injected with NR1011 and NR2A mRNA; conditions: for maximum relative current (MRC) / percentage potentiation of the maximum NMDA response / NMDA nH / EC50: NR1011/2A; for EC50: read-out: NMDA EC50
Method: as §1, §2, §3

NR1011/NR2A [4] = target: T2, NR1011/NR2A; design: agonist Emax: dose or concentration left out as unconfirmed
NR1101/NR2A = NR1101/NR2A (Rattus norvegicus, UniProt P35439+Q00959); design: agonist Emax: dose or concentration left out as unconfirmed
[5] = 100 μM PS, 200 μM NMDA+10 μM glycine, pH 7.5
[6] = pH 7.5, read-out: percentage inhibition of the maximum NMDA response

T1 sequence (Q00959 23-1464, other chains not shown): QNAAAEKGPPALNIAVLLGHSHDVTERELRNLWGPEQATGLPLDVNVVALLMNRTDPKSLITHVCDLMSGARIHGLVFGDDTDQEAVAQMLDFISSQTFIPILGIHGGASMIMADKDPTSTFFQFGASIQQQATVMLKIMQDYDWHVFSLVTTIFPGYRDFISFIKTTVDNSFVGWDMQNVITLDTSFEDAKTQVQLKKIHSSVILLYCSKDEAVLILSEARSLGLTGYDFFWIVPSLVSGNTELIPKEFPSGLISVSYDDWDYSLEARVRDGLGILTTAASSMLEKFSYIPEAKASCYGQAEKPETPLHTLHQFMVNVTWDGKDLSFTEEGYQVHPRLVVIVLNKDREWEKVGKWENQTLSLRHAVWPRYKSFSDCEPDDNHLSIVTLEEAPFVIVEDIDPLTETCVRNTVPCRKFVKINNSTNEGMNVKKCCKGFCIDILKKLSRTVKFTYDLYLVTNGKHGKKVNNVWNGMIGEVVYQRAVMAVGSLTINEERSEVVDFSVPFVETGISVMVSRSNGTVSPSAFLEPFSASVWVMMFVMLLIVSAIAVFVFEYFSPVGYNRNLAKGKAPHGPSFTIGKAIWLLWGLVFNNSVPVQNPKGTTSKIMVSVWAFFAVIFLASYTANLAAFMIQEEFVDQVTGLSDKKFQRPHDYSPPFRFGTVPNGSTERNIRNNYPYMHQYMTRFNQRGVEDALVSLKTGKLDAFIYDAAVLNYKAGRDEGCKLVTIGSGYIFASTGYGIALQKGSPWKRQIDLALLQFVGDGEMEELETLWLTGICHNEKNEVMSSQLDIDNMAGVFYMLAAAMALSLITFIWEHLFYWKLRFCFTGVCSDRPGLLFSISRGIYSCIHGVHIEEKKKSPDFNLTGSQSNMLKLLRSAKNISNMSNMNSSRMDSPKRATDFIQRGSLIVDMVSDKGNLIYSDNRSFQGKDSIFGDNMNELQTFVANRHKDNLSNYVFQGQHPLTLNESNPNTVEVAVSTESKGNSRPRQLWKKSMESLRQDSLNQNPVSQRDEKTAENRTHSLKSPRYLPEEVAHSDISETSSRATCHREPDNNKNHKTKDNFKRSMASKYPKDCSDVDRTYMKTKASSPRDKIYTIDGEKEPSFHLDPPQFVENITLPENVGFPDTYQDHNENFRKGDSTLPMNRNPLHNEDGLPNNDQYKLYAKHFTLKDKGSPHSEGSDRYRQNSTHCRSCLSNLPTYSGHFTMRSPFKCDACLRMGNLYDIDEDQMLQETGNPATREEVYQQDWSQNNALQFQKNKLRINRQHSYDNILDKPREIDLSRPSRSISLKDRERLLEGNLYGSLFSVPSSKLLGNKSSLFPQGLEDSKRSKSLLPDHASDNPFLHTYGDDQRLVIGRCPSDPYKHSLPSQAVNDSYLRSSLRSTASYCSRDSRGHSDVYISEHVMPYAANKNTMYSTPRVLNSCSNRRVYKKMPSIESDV
T2 sequence (Q00959 23-1464, other chains not shown): as above
Chain of NR1010/NR2A (Q00959 23-1464, other chains not shown): as above

## pregnenolone sulfate [PS]
Penta-Mutant/NR2A; 100 uM PS, 300 uM NMDA, 50 uM Glycine
  reduction in PS potentiation of the NMDA response vs wild type: 40% and 47.5±8.80%
NR1/NR2C (NR1100)
  fold less potent as inhibitor of NR1/NR2C and NR1/NR2D than in potentiating NR1/NR2A and NR1/NR2B: 3.4- to 5.6 fold
NR1/NR2C (NR1100); NR1/NR2C
  PS nH: 1.32 ± 0.29
NR1/NR2C (NR1100); NR1/NR2C, 100 μM PS, […] μM NMDA
  inhibition of NMDA-induced current: 35±3%
NR1/NR2C (NR1100); NR1/NR2C, […] μM NMDA, 10 μM glycine
  PS Emax (% Change): −63 ± 9%
NR1010/NR2A; NR1010/NR2A
  PS Emax: 1.03 ± 0.09
  PS nHill: 1.30 ± 0.18
NR1111/NR2A [1]; NR1111/NR2A
  Maximum potentiation of NMDA-induced current by PS: 1.51±0.04 fold
  PS nHill: 1.28 ± 0.19
NR1111/NR2A [1]; NR1111/NR2A, curve 1+Emax/(1+(EC50/c)n)
  PS Emax: 0.51 ± 0.04
NR1111/NR2A [2]; [5]
  maximum relative current (MRC): 2.28
NR1111/NR2A [2]; 100 μM PS, pH 6.5
  maximum relative current (MRC): 4.06
NR1111/NR2A [2]; 100 μM PS, pH 7.5
  percentage potentiation of the maximum NMDA response: 103%
NR1111/NR2A [2]; 100 μM PS, pH 8.5
  maximum relative current (MRC): 1.59 and 1.58
  percentage potentiation of the maximum NMDA response: 47%
NR1111/NR2A [2]; NR1111/NR2A, 100 μM PS
  difference in mrc between pH=6.5 and pH=7.5: 1.8 fold
  difference in mrc between pH=7.5 and pH=8.5: 1.4 fold
NR1100/NR2A; NR1100/NR2A
  Maximum potentiation of NMDA-induced current by PS: 1.67±0.07 fold
  PS Emax: 0.67 ± 0.07
  PS nHill: 1.33 ± 0.08
NR1000/NR2A; NR1000/NR2A
  Maximum potentiation of NMDA-induced current by PS: 2.14±0.08 fold
  PS Emax: 1.14 ± 0.08
  PS nHill: 1.31 ± 0.06
NR1011/NR2A [3]; [5]
  maximum relative current (MRC): 1.41
NR1011/NR2A [3]; 100 μM PS, pH 6.5
  maximum relative current (MRC): 2.24
NR1011/NR2A [3]; 100 μM PS, pH 7.5
  percentage potentiation of the maximum NMDA response: 50%
NR1011/NR2A [3]; 100 μM PS, pH 8.5
  maximum relative current (MRC): 1.35
  percentage potentiation of the maximum NMDA response: 24%
NR1011/NR2A [3]; NR1011/NR2A, 100 μM PS
  difference in mrc between pH=6.5 and pH=7.5: 1.7 fold
NR1011/NR2A [4]; NR1011/NR2A
  Maximum potentiation of NMDA-induced current by PS: 2.14±0.17 fold
  PS Emax: 1.14 ± 0.17
  PS nHill: 1.18 ± 0.18
NR1101/NR2A; NR1101/NR2A
  Maximum potentiation of NMDA-induced current by PS: 1.66±0.10 fold
  PS Emax: 0.66 ± 0.10
  PS nHill: 1.52 ± 0.24

## CN[C@H](CC(=O)O)C(=O)O [NMDA, N-methyl-D-aspartate]
Penta-Mutant/NR2A; read-out: NMDA EC50, Penta-mutant/NR2A
  EC50: 55 ± 3.4 µM
NR1/NR2C (NR1100); NR1/NR2C, +100 μM PS
  agonist Emax: 0.69
  agonist nH: 1.33 ± 0.03
NR1/NR2C (NR1100); NR1/NR2C, no PS
  agonist Emax: 1.05 ± 0.01
  agonist nH: 1.18 ± 0.02
NR1/NR2C (NR1100); read-out: agonist EC50, NR1/NR2C, +100 μM PS
  EC50: 15 µM
NR1010/NR2A; NR1010/NR2A, absence of PS
  agonist Emax: 1.18 ± 0.03
  agonist nHill: 1.19 ± 0.06
NR1010/NR2A; NR1010/NR2A, presence of PS
  agonist Emax: (1.53 ± 0.08)
  agonist nHill: 1.13 ± 0.09
NR1111/NR2A [1]; NR1111/NR2A, absence of PS
  agonist Emax: 1.34 ± 0.09
  agonist nHill: 1.49 ± 0.02
NR1111/NR2A [1]; NR1111/NR2A, presence of 100 mM PS
  agonist nHill: 1.33 ± 0.22
NR1111/NR2A [1]; NR1111/NR2A, presence of PS
  agonist Emax: (2.27 ± 0.07)
NR1111/NR2A [2]; pH 7.5, +100 μM 3α5βS
  NMDA nH: 1.50
  EC50: 158 µM
NR1111/NR2A [2]; pH 7.5, +100 μM PS
  NMDA nH: 2.02
  EC50: 89 µM
NR1111/NR2A [2]; pH 7.5, control
  NMDA nH: 1.67
NR1111/NR2A [2]; pH 8.5, +100 μM PS
  NMDA nH: 1.82
  EC50: 94 µM
NR1111/NR2A [2]; pH 8.5, control
  NMDA nH: 1.93
  EC50: 110 µM
NR1111/NR2A [2]; pH 7.5, control, 10 μM glycine
  EC50: 103 µM
NR1100/NR2A; NR1100/NR2A, absence of PS
  agonist Emax: 1.36 ± 0.04
  agonist nHill: 1.13 ± 0.04
NR1100/NR2A; NR1100/NR2A, presence
  agonist Emax: (1.60 ± 0.07
  agonist nHill: 1.20 ± 0.06
NR1000/NR2A; NR1000/NR2A, absence of PS
  agonist Emax: 1.20 ± 0.05
  agonist nHill: 1.31 ± 0.08
NR1000/NR2A; NR1000/NR2A, presence of 100 mM PS
  agonist nHill: 1.18 ± 0.05
NR1000/NR2A; NR1000/NR2A, presence of PS
  agonist Emax: (1.55 ± 0.04)
NR1011/NR2A [3]; pH 7.5, +100 μM 3α5βS
  NMDA nH: 1.35
  EC50: 120 µM
NR1011/NR2A [3]; pH 7.5, +100 μM PS
  NMDA nH: 1.24
  EC50: 67 µM
NR1011/NR2A [3]; pH 7.5, control
  NMDA nH: 1.47
NR1011/NR2A [3]; pH 8.5, +100 μM PS
  NMDA nH: 1.44
  EC50: 58 µM
NR1011/NR2A [3]; pH 8.5, control
  NMDA nH: 1.62
  EC50: 94 µM
NR1011/NR2A [3]; pH 7.5, control, 10 μM glycine
  EC50: 71 µM
NR1011/NR2A [4]; NR1011/NR2A, absence of PS
  agonist Emax: 1.14 ± 0.02
  agonist nHill: 1.39 ± 0.07
NR1011/NR2A [4]; NR1011/NR2A, presence of 100 mM PS
  agonist nHill: 1.11 ± 0.12
NR1011/NR2A [4]; NR1011/NR2A, presence of PS
  agonist Emax: (1.68 ± 0.06)
NR1101/NR2A; NR1101/NR2A, absence of PS
  agonist Emax: 1.33 ± 0.07
  agonist nHill: 1.31 ± 0.05
NR1101/NR2A; NR1101/NR2A, presence of 100 mM PS
  agonist nHill: 1.15 ± 0.12
NR1101/NR2A; NR1101/NR2A, presence of PS
  agonist Emax: (1.78 ± 0.06)

## CC(=O)[C@H]1CC[C@H]2[C@@H]3CC[C@@H]4C[C@H](OS(=O)(=O)O)CC[C@]4(C)[C@H]3CC[C@]12C [3α5βS, 3α5β-pregnanolone sulfate]
Penta-Mutant/NR2A; Penta-Mutant/NR2A, 100 uM steroid, 300 uM NMDA, 50 uM Glycine
  percent decrease in maximum inward current: 42.79±2.29%
NR1/NR2C (NR1100); NR1/NR2C
  3α5βS nH: 1.34 ± 0.04
NR1010/NR2A; splice variant 010 /NR2A
  3α5βS Emax: −0.85 ± 0.02
  3α5βS nHill: 1.04 ± 0.06
NR1111/NR2A [1]; NR1111/NR2A
  maximum extent of inhibition by 3α5βS: 75±7%
NR1111/NR2A [1]; splice variant 111 /NR2A
  3α5βS Emax: −0.75 ± 0.07
  3α5βS nHill: 1.09 ± 0.9
NR1111/NR2A [2]; [6]
  inhibition at 100 µM: 59%
NR1100/NR2A; NR1100/NR2A
  maximum extent of inhibition by 3α5βS: 99±3%
NR1100/NR2A; splice variant 100 /NR2A
  3α5βS Emax: −0.99 ± 0.03
  3α5βS nHill: 0.83 ± 0.02
NR1000/NR2A; splice variant 000 /NR2A
  3α5βS Emax: −0.89 ± 0.01
  3α5βS nHill: 0.98 ± .03
NR1011/NR2A [3]; [6]
  inhibition at 100 µM: 56%
NR1011/NR2A [4]; splice variant 011 /NR2A
  3α5βS Emax: −0.86 ± 0.04
  3α5βS nHill: 0.96 ± 0.06
NR1101/NR2A; splice variant 101 /NR2A
  3α5βS Emax: −0.90 ± 0.07
  3α5βS nHill: 1.05 ± 0.25

— patent publication US6623933B1 (priority 1999, dated 2003)
